Measured values published in patent US20100286247A1, “Methods of Protection from Oxidative Stress” (Trustees of Boston University, priority 2005, published 2010).
{P} = phosphate

Key:
[1] = test system: primary human newborn dermal fibroblasts; experiment: Determination of cell yields (Coulter counts); type: cell-based
Protocol: Cell culture followed previously published methods.^92 Primary human newborn dermal fibroblasts were cultured from neonatal circumcised foreskin specimens. The skin samples were treated overnight in a 0.25% trypsin solution at 4° C. to separate the epidermis from the dermis. The separated dermis was then cut into pieces and plated onto etched plastic tissue culture dishes. Primary culture medium consisted of DMEM supplemented with 10% bovine CS, 50 U/ml penicillin and 50 μg/ml streptomycin sulfate. […] Secondary culture medium consisted of DMEM supplemented with 10% CS.
Equal numbers of fibroblasts were seeded into 32 mm culture dishes, and paired dishes were treated with pTT or diluent control as described above. At 24, 48 and 72 hours of treatment, the cells were harvested by trypsinization and counted in an automated cell counter (Coulter Z Series, Beckman Coulter, Inc., Fullerton, Calif.). The experiments were conducted in parallel with the MTS assay, using the same donor cells.
Cell yields of pTT-treated fibroblasts were compared to diluent using 2-way ANOVA and a total of four different experiments, to identify significant difference between treatment groups as a function of cell number and time. The parallel MTS assay also utilized the 2-way ANOVA, to compare changes in OD at 492 nm as a function of time and treatment modality. […]

[2] = 100 μM pTT, in vitro and in mouse models in vivo; cited from earlier work
[3] = test system: primary human newborn dermal fibroblasts; experiment: MTS viability assay; type: cell-based; conditions: 100 μM pTT
From the text: The CellTiter 96 Aqueous One Solution Cell Proliferation Assay, a version of the MTT assay, (Promega Corp., Madison, Wis.) is generally used as a eukaryotic cell viability and proliferation assay.^180 It has also been used to measure mitochondrial dysfunction,^181 because the assay measures the reduction of a tetrazolium compound [3-(4,5-dimethylthiazol-2-yl)-5-(-3-carboxymethoxyphenyl)-2-(4-sulfophenyl)-2H-tetrazolium] to formazan in viable mitochondria. The MTS assay utilizes a water-soluble form of the tetrazolium reagent in the original MIT assay. The formazan product is measured by absorbance at 492 nm.
Equal numbers of cells were seeded into 96-well tissue culture plates, and paired wells were treated once with pTT or diluent control as described above. At 24, 48 and 72 hours cell viability was assayed using the MTS assay and an ELIZA plate reader (Tecan Spectra II Model F039002, Austria) to measure absorbance at 492 nm. The experiments were conducted in parallel with cell yield Coulter counts, using the same donor cells.
Cell yields of pTT-treated fibroblasts were compared to diluent using 2-way ANOVA and a total of four different experiments, to identify significant difference between treatment groups as a function of cell number and time. The parallel MTS assay also utilized the 2-way ANOVA, to compare changes in OD at 492 nm as a function of time and treatment modality.

[4] = test system: S91 melanoma cells, cultured melanocytes, guinea pig skin; conditions: solutions of pTT; cited from earlier work
total p53 protein = conditions: 40 μM, published reports; cited from earlier work
GPX protein = experiment: Western blot analysis of antioxidant enzymes: GPX protein; type: cell-based, human; conditions: 40 μM, within several hours, up to 168 hours
Protocol: Cell lysates were harvested at various intervals after T-oligo treatment in harvest buffer containing 0.25 M Tris HCl (pH 7.5), 0.375 M NaCl, 2.5% sodium deoxycholate, 1% Triton X-100, 25 mM MgCl2, 0.1 mg/ml aprotinin (Sigma, St. Louis, Mo.) and 1 mM phenylmethyl sulfonyl flouride (PMSF) (Sigma). Samples were sheared through a fine needle syringe, sonicated, centrifuged and the supernatant was isolated. Total cellular protein concentrations were determined spectrophotometrically with the Bio-Rad protein assay (Bio-Rad Laboratories, Inc, Hercules, Calif.). Equal amounts of total protein from each sample (35-65 μg) were separated by 10-15% polyacrylamide gel electrophoresis, and transferred to nitrocellulose membranes. […]
Membranes were reacted with antibodies diluted in Tris-based buffer with nonfat milk powder as a blocking agent. […] Antibody binding was detected with electrochemical luminescence (ECL kit, NEN Life Science Products, Inc.) and exposure to XAR film (Eastman Kodak Co.).
The levels of superoxide dismutase 1 (SOD1), superoxide dismutase 2 (SOD2), catalase (Cat) and glutathione peroxidase (GPX) were determined in newborn fibroblasts at different time points after treatment with 40 μM of T-oligo in comparison with cells treated either with 40 μM of control complementary oligo pCTAACCCTAAC (SEQ ID NO: 22) or diluent. […]

Question: For “5′-phosphorylated thymidine dinucleotides [pTT]”, which “rate of fibroblast growth (cell yields) during treatment vs diluent” value ([1]; 100 μM pTT, 24-72 hours, 2-way ANOVA p=0.0079) is on record?
Answer: significantly decreased

Question: What about the “growth after replating in regular medium vs diluent-pretreated cells” value ([1]; 72 hours pretreatment with 100 μM pTT, no H2O2, p=0.0006) of the same substance?
Answer: significantly stimulated growth

Question: And the “nucleotide excision DNA repair and UV resistance” value [2]?
Answer: stimulates enhanced nucleotide excision DNA repair and resistance to subsequent UV irradiation

Question: What about the “cell viability (MTS formazan absorbance) vs diluent” value ([3]; 24-72 hours, 2-way ANOVA p=0.2588) of the same substance?
Answer: no significant decrease in cell viability

Question: And the “mitochondrial reductive activity per cell (MTS absorbance per Coulter-counted cell)” value ([3]; p=0.0093)?
Answer: significant increase in mitochondrial reductive activity per cell

Question: And the melanin production [4]?
Answer: enhanced melanin production

Question: For “pGTTAGGGTTAG (5' {P}, sugars by position and backbone not given here) [TO]”, which “time to p53 induction” value (total p53 protein) is on record?
Answer: ≤ 8 h

Question: And the GPX protein level (GPX protein)?
Answer: induced
